#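 The concentration for 50% growth inhibition is given as GI50. TGI: total growth inhibition.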
# Legend:
# Test in all cases: NCI tumour cell line growth inhibition, 384-well format
# SF-295 CNS = system: SF-295 CNS
# SR leukemia = system: SR leukemia
# MOLT-4 leukemia = system: MOLT-4 leukemia
# K-562 leukemia = system: K-562 leukemia
# MDA-MB-468 breast = system: MDA-MB-468 breast
# PC-3 prostate = system: PC-3 prostate
# LOX IMVI melanoma = system: LOX IMVI melanoma
# OVCAR-5 ovarian = system: OVCAR-5 ovarian
# HOP-92 NSCLC = system: HOP-92 NSCLC
# A549 NSCLC = system: A549 NSCLC
# BT-549 breast = system: BT-549 breast
# T-47D breast = system: T-47D breast
# HL-60(TB) leukemia = system: HL-60(TB) leukemia
# RPMI-8226 leukemia = system: RPMI-8226 leukemia
# MDA-MB-435 melanoma = system: MDA-MB-435 melanoma
# OVCAR-3 ovarian = system: OVCAR-3 ovarian
# OVCAR-8 ovarian = system: OVCAR-8 ovarian
# EKVX NSCLC = system: EKVX NSCLC
# U251 glioblastoma = system: U251 glioblastoma
# HT29 colon = system: HT29 colon
# CAKI-1 renal = system: CAKI-1 renal
# SK-MEL-2 melanoma = system: SK-MEL-2 melanoma
# SNB-75 CNS = system: SNB-75 CNS
# NCI-H322M lung = system: NCI-H322M lung
# MCF7 breast = system: MCF7 breast
# UACC-62 melanoma = system: UACC-62 melanoma
# SF-268 CNS = system: SF-268 CNS
# HCT-15 colon = system: HCT-15 colon
# KM12 colon = system: KM12 colon
# OVCAR-4 ovarian = system: OVCAR-4 ovarian
# RXF 393 renal = system: RXF 393 renal
# 786-0 renal = system: 786-0 renal
# M14 melanoma = system: M14 melanoma
# SW-620 colon = system: SW-620 colon
# HCT-116 colon = system: HCT-116 colon
# IGROV1 ovarian = system: IGROV1 ovarian
# CCRF-CEM leukemia = system: CCRF-CEM leukemia
# SN12C renal = system: SN12C renal
# SF-539 CNS = system: SF-539 CNS
# UACC-257 melanoma = system: UACC-257 melanoma
# SK-MEL-5 melanoma = system: SK-MEL-5 melanoma
# SK-MEL-28 melanoma = system: SK-MEL-28 melanoma
# A498 renal = system: A498 renal
# SK-OV-3 ovarian = system: SK-OV-3 ovarian
# COLO 205 colon = system: COLO 205 colon
# NCI-H522 lung = system: NCI-H522 lung
# NCI-H460 NSCLC = system: NCI-H460 NSCLC
compound,measurement,setting,value
N#Cc1c(N)nc(N)nc1N[C@H](c1nc2c(F)ccc(Cl)c2c(=O)n1-c1cccnc1)C1CC1,GI50,SF-295 CNS,2.37 µM
same,TGI,SF-295 CNS,18.4 µM
same,GI50,SR leukemia,10.5 µM
same,TGI,SR leukemia,22.5 µM
same,GI50,MOLT-4 leukemia,1.54 µM
same,TGI,MOLT-4 leukemia,3.94 µM
same,GI50,K-562 leukemia,17.8 µM
same,TGI,K-562 leukemia,38.1 µM
same,GI50,MDA-MB-468 breast,0.912 µM
same,TGI,MDA-MB-468 breast,5.94 µM
same,GI50,PC-3 prostate,1.08 µM
same,TGI,PC-3 prostate,14 µM
same,GI50,LOX IMVI melanoma,5.13 µM
same,TGI,LOX IMVI melanoma,18.6 µM
same,GI50,OVCAR-5 ovarian,9.12 µM
same,TGI,OVCAR-5 ovarian,43.1 µM
same,GI50,HOP-92 NSCLC,0.677 µM
same,TGI,HOP-92 NSCLC,14.3 µM
same,GI50,A549 NSCLC,9.47 µM
same,TGI,A549 NSCLC,30.1 µM
same,GI50,BT-549 breast,0.711 µM
same,TGI,BT-549 breast,12.9 µM
same,GI50,T-47D breast,1.02 µM
same,TGI,T-47D breast,5.99 µM
same,GI50,HL-60(TB) leukemia,1.13 µM
same,TGI,HL-60(TB) leukemia,7.85 µM
same,GI50,RPMI-8226 leukemia,3.36 µM
same,TGI,RPMI-8226 leukemia,10.3 µM
same,GI50,MDA-MB-435 melanoma,35.4 µM
same,TGI,MDA-MB-435 melanoma,> 100 µM
same,GI50,OVCAR-3 ovarian,0.728 µM
same,TGI,OVCAR-3 ovarian,6.73 µM
same,GI50,OVCAR-8 ovarian,13.4 µM
same,TGI,OVCAR-8 ovarian,32.7 µM
same,GI50,EKVX NSCLC,2.63 µM
same,TGI,EKVX NSCLC,17.6 µM
same,GI50,U251 glioblastoma,18.3 µM
same,TGI,U251 glioblastoma,61.9 µM
same,GI50,HT29 colon,13.4 µM
same,TGI,HT29 colon,42 µM
same,GI50,CAKI-1 renal,2.3 µM
same,TGI,CAKI-1 renal,> 100 µM
same,GI50,SK-MEL-2 melanoma,17.3 µM
same,TGI,SK-MEL-2 melanoma,39.3 µM
same,GI50,SNB-75 CNS,0.67 µM
same,TGI,SNB-75 CNS,5.1 µM
same,GI50,NCI-H322M lung,14.9 µM
same,TGI,NCI-H322M lung,> 80.1 µM
same,GI50,MCF7 breast,2.73 µM
same,TGI,MCF7 breast,> 100 µM
same,GI50,UACC-62 melanoma,3.23 µM
same,TGI,UACC-62 melanoma,58.9 µM
same,GI50,SF-268 CNS,13.9 µM
same,TGI,SF-268 CNS,51.1 µM
same,GI50,HCT-15 colon,16.1 µM
same,TGI,HCT-15 colon,44.9 µM
same,GI50,KM12 colon,17.8 µM
same,TGI,KM12 colon,52.3 µM
same,GI50,OVCAR-4 ovarian,10.8 µM
same,TGI,OVCAR-4 ovarian,52.7 µM
same,GI50,RXF 393 renal,0.2 µM
same,TGI,RXF 393 renal,0.936 µM
same,GI50,786-0 renal,3.51 µM
same,TGI,786-0 renal,24.4 µM
same,GI50,M14 melanoma,79 µM
same,TGI,M14 melanoma,> 100 µM
same,GI50,SW-620 colon,11.9 µM
same,TGI,SW-620 colon,36.3 µM
same,GI50,HCT-116 colon,16.1 µM
same,TGI,HCT-116 colon,35.9 µM
same,GI50,IGROV1 ovarian,1.64 µM
same,TGI,IGROV1 ovarian,4.18 µM
same,GI50,CCRF-CEM leukemia,1.42 µM
same,TGI,CCRF-CEM leukemia,10.6 µM
same,GI50,SN12C renal,4.29 µM
same,TGI,SN12C renal,> 100 µM
same,GI50,SF-539 CNS,5.96 µM
same,TGI,SF-539 CNS,44.5 µM
same,GI50,UACC-257 melanoma,19.5 µM
same,TGI,UACC-257 melanoma,> 100 µM
same,GI50,SK-MEL-5 melanoma,12.6 µM
same,TGI,SK-MEL-5 melanoma,34.3 µM
same,GI50,SK-MEL-28 melanoma,3.88 µM
same,TGI,SK-MEL-28 melanoma,> 100 µM
same,GI50,A498 renal,0.445 µM
same,TGI,A498 renal,3.11 µM
same,GI50,SK-OV-3 ovarian,4.36 µM
same,TGI,SK-OV-3 ovarian,37.5 µM
same,GI50,COLO 205 colon,19.8 µM
same,TGI,COLO 205 colon,> 91.6 µM
same,GI50,NCI-H522 lung,16.9 µM
same,TGI,NCI-H522 lung,48.5 µM
same,GI50,NCI-H460 NSCLC,5.48 µM
same,TGI,NCI-H460 NSCLC,> 100 µM

# From PubChem BioAssay (NCI)
